Results from publication PMC6917776, “Discovery of a chemical probe for PRDM9” (Nature Communications, 2019).
Where “and” joins values, the source holds several entries; their conditions need not be identical. Equal entries are not always repeated.

Assays:
[1] = biological target: PRDM9 (Homo sapiens, UniProt Q9NQV7); test: PRDM9 cellular assay: H3K4me3 of endogenous histone H3 in HEK293T cells (western blot); type: cell-based; conditions: 20 h, technical replicates
Protocol: HEK293T (kind gift from Sam Benchimol, York University), or MCF7 (ATCC® HTB-22™), cells were plated (12 well plates) and next day co-transfected with 0.1 (HEK293T) or 0.2 (MCF7) µg of GFP-tagged histone H3 and with 0.1 (HEK293T) or 0.2 (MCF7) µg of Flag-tagged PRDM9/PRDM9 catalytic mutant (Y357S) and 0.8 or 0.6 µg of empty vector using JetPRIME® transfection reagent, following manufacturer instructions. After 4 h media was removed and cells were treated with compounds for 20 h. Next day, cells were lysed in lysis buffer (20 mM Tris-HCl pH 8, 150 mM NaCl, 1 mM EDTA, 10 mM MgCl2, 0.5% TritonX-100, 12.5 U mL^−1 benzonase (Sigma), complete EDTA-free protease inhibitor cocktail (Roche)). After 2 min incubation at RT, SDS was added to final 1% concentration. Cell lysates were analyzed in western blot for GFP and H3K4me3 levels. All cell lines were mycoplasma negative, as determined by MycoAlert™ Mycoplasma Detection Kit (Lonza).
Total cell lysates were resolved in 4–12% Bis-Tris Protein Gels (Invitrogen) and transferred in for 1.5 h (80 V) onto PVDF membrane (Millipore) in Tris-Glycine transfer buffer containing 20% MeOH and 0.05% SDS. Blots were blocked for 1 h in blocking buffer (5% milk in PBS) and incubated with primary antibodies anti-GFP (1:3000, Clontech # 632381), anti-H3K4me3 (1:1000, Millipore, #04-745), anti-histone H3 (1:2000, #ab10799, Abcam), anti-Flag (1:5000, #F4799, Sigma) in blocking buffer (5% BSA in 0.1% Tween 20 PBS) overnight at 4 °C. After five washes with 0.1% Tween 20 PBS the blots were incubated with goat-anti rabbit (IR800) and donkey anti-mouse (IR 680) antibodies (1:5000) in Odyssey Blocking Buffer (LiCor) for 1 h at RT and washed five times with 0.1% Tween 20 PBS. The signal was read on an Odyssey scanner (LiCor) at 800 nm and 700 nm and analyzed with Image Studio Ver.5.2 software. […]
endogenous histone H3. (a) Western blot analysis of cellular lysates prepared from HEK293T cells transfected with PRDM9-FLAG and treated with the indicated concentration of compound for 20 h. Mut denotes PRDM9 catalytic mutant (Y357S). (b) Non-linear fit of H3K4me3 fluorescence intensities normalized to intensities of histone H3 is shown. The results are MEAN +/- SEM of n=3 (technical replicates). Source data are provided as a Source Data file .
(1 picture or pasted object on this page, not shown here)

[2] = biological target: T1, Muscarinic M2 (Homo sapiens, UniProt P08172); test: GPCR functional activity, GloSensor assay (agonist and antagonist mode); type: cell-based; conditions: for M2 Tango Agonist, raw signal / M2 Tango Antagonist, raw signal: replicates 1-4
T1 construct: NIMH Psychoactive Drug Screening Program, University of North Carolina at Chapel Hill
T1 sequence (P08172 1-466): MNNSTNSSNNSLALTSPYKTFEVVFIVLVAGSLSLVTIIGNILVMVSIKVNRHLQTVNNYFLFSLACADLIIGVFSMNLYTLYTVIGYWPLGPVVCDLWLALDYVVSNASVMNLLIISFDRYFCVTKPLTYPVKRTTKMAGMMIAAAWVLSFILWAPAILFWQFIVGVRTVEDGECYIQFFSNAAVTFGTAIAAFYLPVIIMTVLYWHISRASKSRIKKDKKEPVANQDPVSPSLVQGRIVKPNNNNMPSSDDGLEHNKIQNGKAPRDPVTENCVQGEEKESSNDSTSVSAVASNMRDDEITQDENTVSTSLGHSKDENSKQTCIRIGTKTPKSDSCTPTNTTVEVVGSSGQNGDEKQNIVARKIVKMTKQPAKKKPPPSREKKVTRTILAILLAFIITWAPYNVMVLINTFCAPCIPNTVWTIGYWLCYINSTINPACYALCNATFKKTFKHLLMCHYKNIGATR

[3] = system: panel of 108 enzymes and receptors; test: Eurofins Panlabs customized panel profiling; type: binding

Sequence of PRDM9 (Q9NQV7 whole entry): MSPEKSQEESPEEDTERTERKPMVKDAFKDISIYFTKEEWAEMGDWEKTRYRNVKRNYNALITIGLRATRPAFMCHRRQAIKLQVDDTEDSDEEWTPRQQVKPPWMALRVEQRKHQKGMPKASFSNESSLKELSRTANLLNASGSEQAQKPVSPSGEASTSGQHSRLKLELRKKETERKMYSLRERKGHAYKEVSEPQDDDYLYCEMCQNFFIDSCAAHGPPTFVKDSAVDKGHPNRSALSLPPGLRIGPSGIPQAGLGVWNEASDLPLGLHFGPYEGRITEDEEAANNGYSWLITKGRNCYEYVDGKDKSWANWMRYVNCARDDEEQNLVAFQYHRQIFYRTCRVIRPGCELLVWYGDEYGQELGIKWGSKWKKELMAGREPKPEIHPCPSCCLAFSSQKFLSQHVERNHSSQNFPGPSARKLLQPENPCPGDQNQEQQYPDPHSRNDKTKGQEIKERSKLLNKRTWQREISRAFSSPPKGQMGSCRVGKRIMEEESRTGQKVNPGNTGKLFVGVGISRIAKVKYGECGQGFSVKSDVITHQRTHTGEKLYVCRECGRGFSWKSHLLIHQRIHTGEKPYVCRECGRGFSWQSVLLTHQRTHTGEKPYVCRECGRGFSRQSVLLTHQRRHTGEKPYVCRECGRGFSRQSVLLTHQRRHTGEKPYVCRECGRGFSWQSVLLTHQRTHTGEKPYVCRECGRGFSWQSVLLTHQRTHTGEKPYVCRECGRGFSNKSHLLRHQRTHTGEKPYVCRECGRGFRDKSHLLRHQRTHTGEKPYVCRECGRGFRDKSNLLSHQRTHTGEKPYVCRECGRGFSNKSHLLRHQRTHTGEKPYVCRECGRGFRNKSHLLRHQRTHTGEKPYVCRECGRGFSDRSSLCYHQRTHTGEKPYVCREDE

`COc1cc(OC)cc(-c2noc(N3CCN(C)C4(CCN(c5ccnc(C)c5)CC4)C3)n2)c1` [MRK-740] was tested, and the “H3K4me3/endogenousH3 - western blot” value ([1]; 0.256 µM) was 93.518 % control and 101.99 % control and 96.0071 % control, the “H3K4me3/endogenousH3 - western blot” value ([1]; 0.64 µM) was 97.4527 % control and 97.7629 % control and 94.1624 % control and the “H3K4me3/endogenousH3 - western blot” value ([1]; 1.6 µM) was 94.826 % control and 91.8208 % control and 93.3575 % control. For the same compound, the “H3K4me3/endogenousH3 - western blot” value ([1]; 4 µM) was 91.0956 % control and 84.7178 % control and 90.9069 % control, the “H3K4me3/endogenousH3 - western blot” value ([1]; 10 µM) was 88.6856 % control and 79.3861 % control and 84.4562 % control and the “Functional activity (in words)” value ([2]; agonist and antagonist mode) was “no functional activity”. The “M2 Tango Agonist, raw signal” value ([2]; log[MRK-740] -4.52) was 1230.87 and 608.6 and 2018.05 and 925.229, the “M2 Tango Antagonist, raw signal” value ([2]; log[MRK-740] -4.52) was 1892.98 and 2737.32 and 2580.15 and 2057.03 and the “M2 Tango Agonist, raw signal” value ([2]; log[MRK-740] -5) was 1170.4 and 556.928 and 885.65 and 2239.04. The “M2 Tango Antagonist, raw signal” value ([2]; log[MRK-740] -5) was 2819.92 and 2620.3 and 3056.24 and 3398.11, the “M2 Tango Agonist, raw signal” value ([2]; log[MRK-740] -5.52) was 908.738 and 686.657 and 1321.02 and 1693.72 and the “M2 Tango Antagonist, raw signal” value ([2]; log[MRK-740] -5.52) was 11268.6 and 11778 and 17270.9 and 14621.3. For the same compound, the “M2 Tango Agonist, raw signal” value ([2]; log[MRK-740] -6) was 612.997 and 2403.96 and 980.199 and 1368.29, the “M2 Tango Antagonist, raw signal” value ([2]; log[MRK-740] -6) was 16800.4 and 13053.9 and 12658.1 and 16097 and the “M2 Tango Agonist, raw signal” value ([2]; log[MRK-740] -6.52) was 1008.78 and 553.629 and 1327.61 and 250.195. For the same compound, the “M2 Tango Antagonist, raw signal” value ([2]; log[MRK-740] -6.52) was 19522.3 and 17447.6 and 21435.3 and 11694.3, the “M2 Tango Agonist, raw signal” value ([2]; log[MRK-740] -7) was 841.674 and 505.256 and 883.451 and 1474.94 and the “M2 Tango Antagonist, raw signal” value ([2]; log[MRK-740] -7) was 19642.8 and 20162.6 and 13226 and 9835.52. The “M2 Tango Agonist, raw signal” value ([2]; log[MRK-740] -7.52) was 1908.11 and 681.16 and 1388.08 and 3242.84, the “M2 Tango Antagonist, raw signal” value ([2]; log[MRK-740] -7.52) was 21785.3 and 16504.3 and 11050.6 and 14699.4 and the “M2 Tango Agonist, raw signal” value ([2]; log[MRK-740] -8) was 903.241 and 865.861 and 1293.53 and 833.978. The “M2 Tango Antagonist, raw signal” value ([2]; log[MRK-740] -8) was 17075.8 and 13974.2 and 18134.9 and 13350, the “M2 Tango Agonist, raw signal” value ([2]; log[MRK-740] -8.52) was 3423.68 and 634.694 and 1797.23 and 346.523 and the “M2 Tango Antagonist, raw signal” value ([2]; log[MRK-740] -8.52) was 19019.9 and 15122.7 and 15169.2 and 14917.8. The “M2 Tango Agonist, raw signal” value ([2]; log[MRK-740] -9) was 2386.23 and 137.073 and 3399.79 and 858.202, the “M2 Tango Antagonist, raw signal” value ([2]; log[MRK-740] -9) was 17183.9 and 21120.4 and 14888.7 and 14358.1 and the “M2 Tango Agonist, raw signal” value ([2]; log[MRK-740] -9.52) was 623.448 and 315.598 and 869.448 and 1092.96. For the same compound, the “M2 Tango Antagonist, raw signal” value ([2]; log[MRK-740] -9.52) was 22350.3 and 15858.2 and 16819.1 and 15951.3, the “M2 Tango Agonist, raw signal” value ([2]; log[MRK-740] -10) was 2109.3 and 935.517 and 704.979 and 1937.8 and the “M2 Tango Antagonist, raw signal” value ([2]; log[MRK-740] -10) was 21021.6 and 16763.8 and 20216.2 and 13987.5. The “M2 Tango Agonist, raw signal” value ([2]; log[MRK-740] -10.52) was 1187.14 and 1805.66 and 1171.68 and 1424.71, the “M2 Tango Antagonist, raw signal” value ([2]; log[MRK-740] -10.52) was 18293 and 14853.8 and 17839.5 and 22558.2 and the “M2 Tango Agonist, raw signal” value ([2]; log[MRK-740] -11) was 648.751 and 5178.11 and 914.431 and 991.746. For the same compound, the “M2 Tango Antagonist, raw signal” value ([2]; log[MRK-740] -11) was 17836.6 and 15099.5 and 17153.4 and 15587.9, the “M2 Tango Agonist, raw signal” value ([2]; log[MRK-740] -11.52) was 2954.16 and 1388.16 and 1004.4 and 790.728 and the “M2 Tango Antagonist, raw signal” value ([2]; log[MRK-740] -11.52) was 13959.9 and 19316.4 and 14923.6 and 25119.7. The “M2 Tango Agonist, raw signal” value ([2]; log[MRK-740] -12) was 606.579 and 917.242 and 726.065 and 3353.4, the “M2 Tango Antagonist, raw signal” value ([2]; log[MRK-740] -12) was 15989 and 24141.3 and 15762.3 and 20389.2 and the “Panel of 108 enzymes and receptors: targets with significant (>50% at 10 µM) binding” value [3] was “binding only to Adrenergic α2B, Histamine H3, Muscarinic M2 and Opiate µ receptors”.
